Results as given in ChEMBL document CHEMBL1201862, “PubChem BioAssay data set” (2004).
Activity calls are given as the source filed them.

What was measured:
[1] = molecular target: Voltage-gated inwardly rectifying potassium channel KCNH2 (Homo sapiens, UniProt Q12809); settings: Potency;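 also: confirmatory quantitative high-throughput screen measuring inhibition of hERG channel activity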
Kallikrein-7 = Kallikrein-7 (Homo sapiens, UniProt P49862); experiment: Fluorescence Intensity-based biochemical primary high throughput dose response assay to identify activators of kallikrein-7 (K7) zymogen.
[2] = molecular target: T1, Zinc finger protein mex-5 (Caenorhabditis elegans, UniProt Q9XUB2); experiment: potency of MEX-5 RNA-binding blockers – biochemical, C. elegans, fluorescence polarization, dose response (AID 1960)
T1 sequence (Q9XUB2 whole entry): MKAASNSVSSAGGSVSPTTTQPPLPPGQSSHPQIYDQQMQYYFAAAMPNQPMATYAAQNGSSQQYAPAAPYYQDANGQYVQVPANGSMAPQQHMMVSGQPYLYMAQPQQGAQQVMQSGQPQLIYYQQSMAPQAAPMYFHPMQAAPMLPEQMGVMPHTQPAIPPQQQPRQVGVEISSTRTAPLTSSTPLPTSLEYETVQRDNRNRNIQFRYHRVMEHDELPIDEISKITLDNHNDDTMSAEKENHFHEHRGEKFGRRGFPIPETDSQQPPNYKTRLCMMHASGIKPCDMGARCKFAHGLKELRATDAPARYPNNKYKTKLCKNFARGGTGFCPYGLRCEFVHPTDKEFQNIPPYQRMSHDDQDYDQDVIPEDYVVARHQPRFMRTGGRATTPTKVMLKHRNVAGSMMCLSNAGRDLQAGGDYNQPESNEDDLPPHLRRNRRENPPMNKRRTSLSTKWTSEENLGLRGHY

HEK293 [3] = experiment: cells; settings: Homo sapiens
[4] = molecular target: T2, RNA-binding protein pos-1 (Caenorhabditis elegans, UniProt G5EF15); experiment: disruptors of C. elegans POS-1 RNA interaction – biochemical, fluorescence polarization, dose response (AID 1964);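 also: purified POS-1 fused to maltose binding protein made in E. coli; potency of compounds blocking POS-1 binding to fluorescent RNA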
T2 sequence (G5EF15 whole entry): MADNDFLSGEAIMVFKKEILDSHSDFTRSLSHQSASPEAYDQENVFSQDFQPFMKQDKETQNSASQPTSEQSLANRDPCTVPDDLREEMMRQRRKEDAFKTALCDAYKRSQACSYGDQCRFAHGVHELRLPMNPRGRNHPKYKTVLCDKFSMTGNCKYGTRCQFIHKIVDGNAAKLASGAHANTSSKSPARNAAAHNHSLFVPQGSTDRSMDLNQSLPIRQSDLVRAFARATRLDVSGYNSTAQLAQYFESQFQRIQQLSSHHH

HEK293 [5] = experiment: cells; settings: Homo sapiens; remark: listed apart in the source
CHO = CHO cell viability loss, potency – luminescence, cytotoxicity control for TLR9-MyD88 binding inhibitor project, dose response (AID 588339); format: functional, cell-based, hamster; settings: Cricetulus griseus;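 also: CHO cells stably coexpressing TLR9 and MyD88 fusions from primary screen; compound exposure lasted 48 hours before viability readout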
[6] = HEK-293T viability loss after treatment – luminescence, T-cell screen hits, cytotoxicity control for TCR NF-kB inhibitor project, dose response (AID 489026); format: functional, cell-based;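 also: cells exposed to compound about 14 hours before the viability readout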
[7] = Vero E6 cell cytotoxicity, dose response, cytotoxicity control for non-replicating M. tuberculosis project, secondary assay (AID 492998); format: functional, VeroE6; settings: Vero C1008
[8] = HepG2 cell cytotoxicity, dose response, cytotoxicity control for non-replicating M. tuberculosis project (AID 489018); format: functional; settings: Mycobacterium tuberculosis
cells = format: functional
[9] = THP-1 cell cytotoxicity, dose response, cytotoxicity control for non-replicating M. tuberculosis project (AID 489025); format: functional
[10] = molecular target: T3, Heat shock factor protein 1 (Mus musculus, UniProt P38532); experiment: enhancement of HSF1-driven luciferase signal – cell-based, NIH3T3, luminescence, dose retest, confirmation (AID 435004); format: functional;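 also: stress induced by proteasome inhibitor MG132 added 30 min after compound; luciferase reporter driven by HSF1 response element in NIH3T3 cells; actives raise luminescence as potentiators of the MG132 stress response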
T3 sequence (P38532 whole entry): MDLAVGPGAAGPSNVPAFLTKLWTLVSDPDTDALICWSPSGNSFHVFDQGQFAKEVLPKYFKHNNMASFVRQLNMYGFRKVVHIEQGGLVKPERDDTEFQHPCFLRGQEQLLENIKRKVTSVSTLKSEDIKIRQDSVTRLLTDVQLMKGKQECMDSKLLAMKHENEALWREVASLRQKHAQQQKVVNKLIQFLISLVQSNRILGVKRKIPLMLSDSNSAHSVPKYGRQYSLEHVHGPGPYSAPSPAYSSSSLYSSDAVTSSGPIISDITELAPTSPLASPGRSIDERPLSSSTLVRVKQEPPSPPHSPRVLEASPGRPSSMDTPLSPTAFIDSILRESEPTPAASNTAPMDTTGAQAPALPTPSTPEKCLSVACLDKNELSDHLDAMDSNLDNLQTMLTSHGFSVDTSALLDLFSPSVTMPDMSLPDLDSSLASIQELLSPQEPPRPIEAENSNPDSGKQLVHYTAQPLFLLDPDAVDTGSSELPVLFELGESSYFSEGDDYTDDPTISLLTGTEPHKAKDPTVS

Kallikrein-7, sequence (P49862 whole entry): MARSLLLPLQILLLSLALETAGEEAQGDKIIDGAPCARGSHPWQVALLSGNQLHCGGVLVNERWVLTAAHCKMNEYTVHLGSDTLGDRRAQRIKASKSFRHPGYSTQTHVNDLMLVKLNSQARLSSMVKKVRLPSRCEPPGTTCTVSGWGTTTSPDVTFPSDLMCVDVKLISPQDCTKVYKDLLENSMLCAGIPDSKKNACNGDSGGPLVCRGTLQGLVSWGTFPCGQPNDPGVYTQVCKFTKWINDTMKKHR
Voltage-gated inwardly rectifying potassium channel KCNH2, sequence (Q12809 whole entry): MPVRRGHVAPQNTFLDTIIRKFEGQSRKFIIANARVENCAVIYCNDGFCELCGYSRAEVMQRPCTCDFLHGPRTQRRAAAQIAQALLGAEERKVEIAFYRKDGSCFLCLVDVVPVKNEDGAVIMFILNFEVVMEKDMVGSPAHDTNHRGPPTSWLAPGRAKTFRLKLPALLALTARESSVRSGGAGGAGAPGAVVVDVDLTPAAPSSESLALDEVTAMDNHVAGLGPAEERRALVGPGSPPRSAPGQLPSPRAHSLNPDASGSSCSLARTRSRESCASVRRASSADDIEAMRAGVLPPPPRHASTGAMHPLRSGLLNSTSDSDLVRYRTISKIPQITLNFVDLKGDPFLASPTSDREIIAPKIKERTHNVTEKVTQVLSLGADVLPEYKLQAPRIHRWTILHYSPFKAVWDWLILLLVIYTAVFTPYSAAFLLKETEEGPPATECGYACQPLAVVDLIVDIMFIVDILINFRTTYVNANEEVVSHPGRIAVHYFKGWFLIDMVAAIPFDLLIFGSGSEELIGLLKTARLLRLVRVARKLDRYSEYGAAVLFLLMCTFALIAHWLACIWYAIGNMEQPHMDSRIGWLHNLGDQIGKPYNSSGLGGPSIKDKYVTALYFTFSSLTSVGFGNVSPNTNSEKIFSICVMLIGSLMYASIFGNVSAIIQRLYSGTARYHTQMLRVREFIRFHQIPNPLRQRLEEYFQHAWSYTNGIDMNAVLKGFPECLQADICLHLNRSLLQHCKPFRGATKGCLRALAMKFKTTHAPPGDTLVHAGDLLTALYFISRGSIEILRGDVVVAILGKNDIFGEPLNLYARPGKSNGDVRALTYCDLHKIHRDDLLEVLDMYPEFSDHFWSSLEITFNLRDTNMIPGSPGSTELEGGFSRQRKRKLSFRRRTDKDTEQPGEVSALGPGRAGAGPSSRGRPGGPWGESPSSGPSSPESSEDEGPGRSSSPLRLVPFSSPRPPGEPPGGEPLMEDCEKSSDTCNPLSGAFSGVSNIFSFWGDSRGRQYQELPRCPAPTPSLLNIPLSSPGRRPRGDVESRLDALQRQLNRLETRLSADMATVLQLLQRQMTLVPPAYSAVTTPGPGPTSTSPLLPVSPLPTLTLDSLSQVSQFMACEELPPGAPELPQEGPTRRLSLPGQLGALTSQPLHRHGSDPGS

With `COc1ccc(NC(=O)/C=C/c2ccc(Cl)cc2)cc1` the AC50 [1] was 25.1 µM (inconclusive).

In the case of `Oc1nc(-c2ccccc2Cl)c2cc(F)ccc2n1`, the EC50 (Kallikrein-7) is reported as > 69.5 µM (inactive).

For `Nc1ccc2nc(-c3ccccc3)c(-c3ccccc3)nc2c1`, the EC50 [2] was 24.9 µM (active), the EC50 (HEK293 [3]) was > 59.6 µM (inactive) and the EC50 [4] was 23.9 µM (inconclusive). For the same compound, the EC50 (HEK293 [5]) was > 59.6 µM (inactive) and the IC50 (CHO) was > 49.7 µM (inactive).

In the case of `Cc1ccc(O)c(NC(=O)c2cc(-c3ccccc3)on2)c1`, the IC50 [6] is reported as > 80 µM (inactive).

In the case of `COc1ccc(C(CCNCc2ccccc2)c2ccc(F)cc2)cc1` (stereo unspecified), the CC50 [7] is reported as 18 µM (active), the CC50 [8] is reported as 14.6 µM (active) and the IC50 (cells) is reported as 18.7 µM (active). For the same compound, the CC50 [9] was 11.7 µM (active) and the EC50 [10] was > 260 µM (inactive).

In the case of `Cc1c(C2(O)CCCCC2)[nH]c2cnccc12`, the EC50 (Kallikrein-7) is reported as > 69.5 µM (inactive).

With `Nc1c(Cl)cc(Cl)cc1C(=O)OCC(=O)N1CCCC1` the EC50 (Kallikrein-7) was > 69.5 µM (inactive).

In the case of `CCOC(=O)N1CCC2(CC1)NC(=O)c1ccccc1N2`, the EC50 (Kallikrein-7) is reported as > 69.5 µM (inactive).
